Laboratory results published in patent publication US11104674B2 (Hoffmann-La Roche Inc., priority 2016, dated 2021).

system: HBsAg; assay: HBsAg assay (chemiluminescence immunoassay of secreted HBsAg); type: cell-based, HBV; details: Hepatitis B virus, HepG2.2.15, HBsAg secretion, HepG2.2.15 cells, CLIA of culture supernatant
How it was run: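 HepG2.2.15 cells, in duplicate, treated with three-fold serial compound dilutions (1% DMSO final); secreted HBsAg in supernatant quantified by chemiluminescence immunoassay; IC50 is the concentration reducing HBsAg secretion by 50% versus the DMSO control.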

Point of comparison: COCC1CN(c2cc(F)nc(N3CCc4nc(-c5ncccn5)ncc4C3C)c2)CCO1 (centres unmarked) [Example 14, 4-[2-fluoro-6-(5-methyl-2-pyrimidin-2-yl-7,8-dihydro-5H-pyrido[4,3-d]pyrimidin-6-yl)-4-pyridyl]-2-(methoxymethyl)morpholine], IC50 17 nM. Against it:
- CC1c2cnc(-c3ncccn3)nc2CCN1c1cc(F)nc(N2CC(F)C2)c1 (centres unmarked) [Example 150, 6-[2-Fluoro-6-(3-fluoroazetidin-1-yl)-4-pyridyl]-5-methyl-2-pyrimidin-2-yl-7,8-dihydro-5H-pyrido[4,3-d]pyrimidine] — within 1.5-fold, 20 nM
- CC1c2cnc(-c3ncccn3)nc2CCN1c1cc(NS(=O)(=O)c2ccccc2)cc(F)n1 (centres unmarked) [Example 77, N-[2-fluoro-6-(5-methyl-2-pyrimidin-2-yl-7,8-dihydro-5H-pyrido[4,3-d]pyrimidin-6-yl)-4-pyridyl]benzenesulfonamide] — 33-fold higher, 554 nM
- COCC1CCCN1c1cc(F)nc(N2CCc3nc(-c4ncccn4)ncc3C2C)c1 (centres unmarked) [Example 34, 6-[6-fluoro-4-[2-(methoxymethyl)pyrrolidin-1-yl]-2-pyridyl]-5-methyl-2-pyrimidin-2-yl-7,8-dihydro-5H-pyrido[4,3-d]pyrimidine] — 3.2-fold higher, 54 nM
- CC1c2cnc(-c3ncccn3)nc2CCN1c1cc(F)cc(N2CCC(C(N)=O)CC2)n1 (centres unmarked) [Example 55, 1-[4-fluoro-6-(5-methyl-2-pyrimidin-2-yl-7,8-dihydro-5H-pyrido[4,3-d]pyrimidin-6-yl)-2-pyridyl]piperidine-4-carboxamide] — 4.2-fold higher, 72 nM
- CC1c2cnc(-c3ncccn3)nc2CCN1c1cc(F)nc(N2CCC2)c1 (centres unmarked) [Example 147, 6-[2-(Azetidin-1-yl)-6-fluoro-4-pyridyl]-5-methyl-2-pyrimidin-2-yl-7,8-dihydro-5H-pyrido[4,3-d]pyrimidine] — within 1.5-fold, 18 nM
- CC1c2cnc(-c3ncccn3)nc2CCN1c1cc(N2CC(CO)CC2=O)cc(F)n1 (centres unmarked) [Example 153, 1-[2-Fluoro-6-(5-methyl-2-pyrimidin-2-yl-7,8-dihydro-5H-pyrido[4,3-d]pyrimidin-6-yl)-4-pyridyl]-4-(hydroxymethyl)pyrrolidin-2-one] — 1.9-fold higher, 32 nM
- CC1c2cnc(-c3ncccn3)nc2CCN1c1cc(N2CC(C(=O)O)C2)cc(F)n1 (centres unmarked) [Example 54, 1-[2-fluoro-6-(5-methyl-2-pyrimidin-2-yl-7,8-dihydro-5H-pyrido[4,3-d]pyrimidin-6-yl)-4-pyridyl]azetidine-3-carboxylic acid] — 370-fold higher, 6340 nM
- CC1c2cnc(-c3ncccn3)nc2CCN1c1cc(F)cc(N2CC3(COC3)C2)n1 (centres unmarked) [Example 129, 6-[4-fluoro-6-(5-methyl-2-pyrimidin-2-yl-7,8-dihydro-5H-pyrido[4,3-d]pyrimidin-6-yl)-2-pyridyl]-2-oxa-6-azaspiro[3.3]heptane] — 2.1-fold higher, 36 nM
- CC1c2cnc(-c3ccccn3)nc2CCN1c1cc(F)cc(N2CCN(S(C)(=O)=O)CC2)n1 (centres unmarked) [Example 72, 6-[4-fluoro-6-(4-methylsulfonylpiperazin-1-yl)-2-pyridyl]-5-methyl-2-(2-pyridyl)-7,8-dihydro-5H-pyrido[4,3-d]pyrimidine] — 3.4-fold higher, 58 nM
- CC1c2cnc(-c3ncccn3)nc2CCN1c1cc(F)cc(N2CCN(S(C)(=O)=O)CC2)n1 (centres unmarked) [Example 57, 6-[4-fluoro-6-(4-methylsulfonylpiperazin-1-yl)-2-pyridyl]-5-methyl-2-pyrimidin-2-yl-7,8-dihydro-5H-pyrido[4,3-d]pyrimidine] — 1.6-fold higher, 28 nM
- CC1CCN(c2cc(F)cc(N3CCc4nc(-c5ncccn5)ncc4C3C)n2)C1 (centres unmarked) [Example 19, 6-[4-fluoro-6-(3-methylpyrrolidin-1-yl)-2-pyridyl]-5-methyl-2-pyrimidin-2-yl-7,8-dihydro-5H-pyrido[4,3-d]pyrimidine] — 1.5-fold lower, 11 nM
- CC1c2cnc(-c3ncccn3)nc2CCN1c1cc(NC2CCOCC2)cc(F)n1 (centres unmarked) [Example 48, 2-fluoro-6-(5-methyl-2-pyrimidin-2-yl-7,8-dihydro-5H-pyrido[4,3-d]pyrimidin-6-yl)-N-tetrahydropyran-4-yl-pyridin-4-amine] — 3.2-fold higher, 55 nM
- CC(=O)N1CCN(c2cc(F)nc(N3CCc4nc(-c5ccccn5)ncc4C3C)c2)CC1 (centres unmarked) [Example 69, 1-[4-[2-fluoro-6-[5-methyl-2-(2-pyridyl)-7,8-dihydro-5H-pyrido[4,3-d]pyrimidin-6-yl]-4-pyridyl]piperazin-1-yl]ethanone] — within 1.5-fold, 14 nM
- CC1c2cnc(-c3ncccn3)nc2CCN1c1cc(F)cc(NC2CCOCC2)n1 (centres unmarked) [Example 49, 4-fluoro-6-(5-methyl-2-pyrimidin-2-yl-7,8-dihydro-5H-pyrido[4,3-d]pyrimidin-6-yl)-N-tetrahydropyran-4-yl-pyridin-2-amine] — 3.3-fold higher, 56 nM
- CCS(=O)(=O)N1CCN(c2cc(F)cc(N3CCc4nc(-c5ncccn5)ncc4C3C)n2)CC1 (centres unmarked) [Example 91, 6-[6-(4-ethylsulfonylpiperazin-1-yl)-4-fluoro-2-pyridyl]-5-methyl-2-pyrimidin-2-yl-7,8-dihydro-5H-pyrido[4,3-d]pyrimidine] — within 1.5-fold, 12 nM
- CC1COCCN1c1cc(F)nc(N2CCc3nc(-c4ncccn4)ncc3C2C)c1 (centres unmarked) [Example 40, 4-[2-fluoro-6-(5-methyl-2-pyrimidin-2-yl-7,8-dihydro-5H-pyrido[4,3-d]pyrimidin-6-yl)-4-pyridyl]-3-methyl-morpholine] — 1.7-fold lower, 10 nM
- CC1CN(c2cc(F)nc(N3CCc4nc(-c5ncccn5)ncc4C3C)c2)CC(=O)N1 (centres unmarked) [Example 134, 4-[2-fluoro-6-(5-methyl-2-pyrimidin-2-yl-7,8-dihydro-5H-pyrido[4,3-d]pyrimidin-6-yl)-4-pyridyl]-6-methyl-piperazin-2-one] — within 1.5-fold, 15 nM
- CC(=O)NC1CN(c2cc(F)cc(N3CCc4nc(-c5ncccn5)ncc4C3C)n2)C1 (centres unmarked) [Example 131, N-[1-[4-fluoro-6-(5-methyl-2-pyrimidin-2-yl-7,8-dihydro-5H-pyrido[4,3-d]pyrimidin-6-yl)-2-pyridyl]azetidin-3-yl]acetamide] — 2.5-fold higher, 43 nM
- CC1c2cnc(-c3ncccn3)nc2CCN1c1cc(N2CCN(S(C)(=O)=O)C(C)(C)C2)cc(F)n1 (centres unmarked) [Example 100, 6-[4-(3,3-dimethyl-4-methylsulfonyl-piperazin-1-yl)-6-fluoro-2-pyridyl]-5-methyl-2-pyrimidin-2-yl-7,8-dihydro-5H-pyrido[4,3-d]pyrimidine] — within 1.5-fold, 13 nM
- CC1c2cnc(-c3ncccn3)nc2CCN1c1cc(NCCCCCC(=O)O)cc(F)n1 (centres unmarked) [Example 1, 6-[[2-fluoro-6-(5-methyl-2-pyrimidin-2-yl-7,8-dihydro-5H-pyrido[4,3-d]pyrimidin-6-yl)-4-pyridyl]amino]hexanoic acid] — 88-fold higher, 1500 nM
- CC1c2cnc(-c3ncccn3)nc2CCN1c1cc(F)cc(N2CCN(CCC(N)=O)CC2)n1 (centres unmarked) [Example 103, 3-[4-[4-fluoro-6-(5-methyl-2-pyrimidin-2-yl-7,8-dihydro-5H-pyrido[4,3-d]pyrimidin-6-yl)-2-pyridyl]piperazin-1-yl]propanamide] — 79-fold higher, 1350 nM
- CC1c2cnc(-c3ncccn3)nc2CCN1c1cc(N2C3CCC2COC3)cc(F)n1 (centres unmarked) [Example 10, 8-[2-fluoro-6-(5-methyl-2-pyrimidin-2-yl-7,8-dihydro-5H-pyrido[4,3-d]pyrimidin-6-yl)-4-pyridyl]-3-oxa-8-azabicyclo[3.2.1]octane] — 2.3-fold higher, 39 nM
- CC1CCN(c2cc(F)nc(N3CCc4nc(-c5ncccn5)ncc4C3C)c2)C1=O (centres unmarked) [Example 152, 1-[2-Fluoro-6-(5-methyl-2-pyrimidin-2-yl-7,8-dihydro-5H-pyrido[4,3-d]pyrimidin-6-yl)-4-pyridyl]-3-methyl-pyrrolidin-2-one] — 5.7-fold lower, 3 nM
- CC1c2cnc(-c3ncccn3)nc2CCN1c1cc(N2CCN(CC(N)=O)CC2)cc(F)n1 (centres unmarked) [Example 102, 2-[4-[2-fluoro-6-(5-methyl-2-pyrimidin-2-yl-7,8-dihydro-5H-pyrido[4,3-d]pyrimidin-6-yl)-4-pyridyl]piperazin-1-yl]acetamide] — 1.7-fold higher, 29 nM
- CC(=O)NC1CN(c2cc(F)nc(N3CCc4nc(-c5ncccn5)ncc4C3C)c2)C1 (centres unmarked) [Example 132, N-[1-[2-fluoro-6-(5-methyl-2-pyrimidin-2-yl-7,8-dihydro-5H-pyrido[4,3-d]pyrimidin-6-yl)-4-pyridyl]azetidin-3-yl]acetamide] — within 1.5-fold, 24 nM
- CC1c2cnc(-c3ncccn3)nc2CCN1c1cc(N(C)C(=O)c2ccccc2)cc(F)n1 (centres unmarked) [Example 163, N-[2-Fluoro-6-(5-methyl-2-pyrimidin-2-yl-7,8-dihydro-5H-pyrido[4,3-d]pyrimidin-6-yl)-4-pyridyl]-N-methyl-benzamide] — 5.4-fold higher, 91 nM
- CC1c2cnc(-c3ncccn3)nc2CCN1c1cc(N2CC(C(=O)NS(C)(=O)=O)C2)cc(F)n1 (centres unmarked) [Example 64, 1-[2-fluoro-6-(5-methyl-2-pyrimidin-2-yl-7,8-dihydro-5H-pyrido[4,3-d]pyrimidin-6-yl)-4-pyridyl]-N-methylsulfonyl-azetidine-3-carboxamide] — 140-fold higher, 2380 nM
- CC1c2cnc(-c3ncccn3)nc2CCN1c1cc(F)cc(N2CC(C(=O)NS(C)(=O)=O)C2)n1 (centres unmarked) [Example 63, 1-[4-fluoro-6-(5-methyl-2-pyrimidin-2-yl-7,8-dihydro-5H-pyrido[4,3-d]pyrimidin-6-yl)-2-pyridyl]-N-methylsulfonyl-azetidine-3-carboxamide] — 320-fold higher, 5420 nM
- CC1c2cnc(-c3ncccn3)nc2CCN1c1cc(N2CCC(O)C2)cc(F)n1 (centres unmarked) [Example 36, 1-[2-fluoro-6-(5-methyl-2-pyrimidin-2-yl-7,8-dihydro-5H-pyrido[4,3-d]pyrimidin-6-yl)-4-pyridyl]pyrrolidin-3-ol] — within 1.5-fold, 12 nM
- CC1c2cnc(-c3ccccn3)nc2CCN1c1cc(F)cc(N2CCC(C(=O)NS(C)(=O)=O)C2)n1 (centres unmarked) [Example 85, 1-[4-fluoro-6-[5-methyl-2-(2-pyridyl)-7,8-dihydro-5H-pyrido[4,3-d]pyrimidin-6-yl]-2-pyridyl]-N-methylsulfonyl-pyrrolidine-3-carboxamide] — 16-fold higher, 264 nM
- CC1c2cnc(-c3ccccn3)nc2CCN1c1cc(F)cc(N2CCC(O)C2)n1 (centres unmarked) [Example 59, 1-[4-fluoro-6-[5-methyl-2-(2-pyridyl)-7,8-dihydro-5H-pyrido[4,3-d]pyrimidin-6-yl]-2-pyridyl]pyrrolidin-3-ol] — 1.5-fold higher, 26 nM
